Legend:
[1] = target: T1, human Nav1.7 R1599P (rpNav1.7) (Homo sapiens, UniProt Q15858, R1610P); test: Long-term inactivation of rpNav1.7; assay type: cell-based
T1 construct: expressed in transfected cells; host or cells: HEK293 cells, transient transfection with pcDNA3.1 construct

Nav1.8 [2] = settings: ref Xiao et al., 2022; cited from earlier work
Excerpt: Next, we investigated if FHF4A, another INaR mediator reported recently ([White et al., 2019]; [Xiao et al., 2022]), shares the receptor site in VGSCs with Navβ4 peptide. […] They consist of a long N-terminus, an FGF-like β-trefoil core, and a short C-terminus ([Goldfarb, 2005]). They display an intrinsic capability to generate INaR, to a varying extent, in Nav1.8 and Nav1.9.

human Nav1.8 [3] = test: Gating properties (steady-state activation, inactivation, INaP), Nav1.8; assay type: cell-based
Procedure: (§1) HEK293 cells and ND7/23 cells were grown under standard tissue culture conditions (5% CO2 and 37°C) in DMEM supplemented with 10% FBS, 1% penicillin and 1% streptomycin. Using Invitrogen Lipofectamine 2000, human Nav1.7 R1599P (rpNav1.7) and the mutant constructs were transiently co-transfected with Navβ1 and Navβ2 into HEK293 cells. The constructs human Nav1.8 and mutants were transiently co-transfected with FHF2B or FHF4A into ND7/23 cells. The lipofectamine-DNA mixture was added to the cell culture medium and left for 3 h after which the cells were washed with fresh medium. Cells with green fluorescent protein fluorescence were selected for whole-cell patch-clamp recordings 36–72 h after transfection.
(§2) Whole-cell voltage-clamp recordings were performed at room temperature (~21°C) using an EPC-10 amplifier and the Pulse program (HEKA Electronics). Fire-polished electrodes (0.7–1.0 MΩ) were fabricated from 1.7 mm capillary glass using a P-97 puller (Sutter Instruments), and the tips were coated with sticky wax (KerrLab) to reduce electrode capacitance and enable increased series resistance compensation. The pipette solution contained (in mM) 140 CsF, 1.1 EGTA, 10 NaCl, and 10 HEPES, pH 7.3. The bathing solution was (in mM) 130 mM NaCl, 30 mM TEA chloride, 1 mM MgCl2, 3 mM KCl, 1 mM CaCl2, 10 mM HEPES, and 10 mM d-glucose, pH 7.3 (adjusted with NaOH). […] The offset potential was zeroed before contacting the cell. After establishing the whole-cell recording configuration, the resting potential was held at −120 or −100 mV for 5 min to allow adequate equilibration between the micropipette solution and the cell interior. Linear leak subtraction, based on resistance estimates from four to five hyperpolarizing pulses applied before the depolarizing test potential, was used for all voltage clamp recordings. Membrane currents were usually filtered at 5 kHz and sampled at 20 kHz. […] Voltage errors were minimized using 80–95% series resistance compensation, and the capacitance artifact was canceled using the computer-controlled circuitry of the patch clamp amplifier. […] The concentration-dependent curves were fitted to a hill equation: Y = Bottom + (Top-Bottom)/(1 + 10^((LogEC50-X)*HillSlope)).
(§3) Families of sodium currents were induced by 50-ms depolarizing steps to various potentials ranging from −120 (or −100) to +40 mV in 5-mV increments. The conductance was calculated using the equation G(Nav) = I/(V - Vrev) in which I, V, and Vrev represent inward current value, membrane potential, and reversal potential, respectively.
(§4) Voltage dependence of steady-state inactivation was estimated using a standard double pulse protocol in which sodium currents were induced by a 50-ms depolarizing potential of 0 mV following a 500-ms prepulse at potentials that ranged from −150 to +10 mV with a 10-mV increment. Currents were plotted as a fraction of the maximum peak current. To obtain the midpoint voltages (V1/2) and slope factor (k), the curves of both steady-state activation and inactivation were fitted to a Boltzmann function.

Nav1.8 Y1717K = test: Gating properties, Nav1.8 mutant Y1717K; assay type: cell-based, human
Procedure: as §1, §2, §3, §4

Nav1.8 [4] = settings: ref Xiao et al., 2022; cited from earlier work; remark: listed apart in the source
Excerpt: This mechanism requires that the peptides compete with the fast inactivation particle to block open VGSCs at strong positive potentials and unblocks upon repolarization so that the channels can reconduct ([Cannon and Bean, 2010]).

[5] = target: T1, human Nav1.7 R1599P (rpNav1.7); test: Inhibition of Navβ4 peptide-mediated rpNav1.7 INaR; assay type: cell-based; settings: 100 μM Navβ4 peptide + 1 mM FHF4A peptide, HEK293; n = 5
Nav1.8 N891S [6] = test: INaR, Nav1.8 mutant N891S; assay type: cell-based, human; settings: 1 mM FHF4A peptide, + FHF2B, ND7/23; −80 to +20 mV; n = 6
Procedure: as §1
Whole-cell voltage-clamp recordings were performed at room temperature (~21°C) using an EPC-10 amplifier and the Pulse program (HEKA Electronics). […]
(§5) INaR: INaR was elicited by repolarizing voltage steps from +20 to −80 mV for 100 ms (or 200 ms) in −5 mV increments, following a 20-ms depolarizing potential of +30 mV. […] The relative INaR in Nav1.7 and Nav1.8 was calculated by normalizing to the peak transient current elicited at −10 or 0 mV.

human Nav1.8 [7] = test: INaR, Nav1.8 co-expressed with FHF2B; assay type: cell-based
Procedure: as §1, §2, §5

Nav1.8 Y387K = test: Gating properties, Nav1.8 mutant Y387K; assay type: cell-based, human; settings: 1 mM FHF4A peptide
Procedure: as §1, §2
as §3, with “respectively. […]” for “respectively.”

Nav1.8 [8] = settings: n = 6, ref Xiao et al., 2022; cited from earlier work
Excerpt: Increased INaR may result from destabilizing fast inactivation or increasing “window currents” of VGSCs ([Xiao et al., 2019]).

Nav1.8 N891S [9] = test: Gating properties, Nav1.8 mutant N891S; assay type: cell-based, human; settings: 1 mM FHF4A peptide
Procedure: as §1, §2
as §3, with “respectively. […]” for “respectively.”

[10] = Nav1.8 + FHF2B, ND7/23, 1 mM, held at −100 mV, scramble n = 8, FHF4A peptide n = 10, p > 0.05
[11] = Nav1.8 + FHF2B, ND7/23, 1 mM FHF4A peptide

T1 sequence (Q15858 1-1977 isoform Q15858-3 R1599P): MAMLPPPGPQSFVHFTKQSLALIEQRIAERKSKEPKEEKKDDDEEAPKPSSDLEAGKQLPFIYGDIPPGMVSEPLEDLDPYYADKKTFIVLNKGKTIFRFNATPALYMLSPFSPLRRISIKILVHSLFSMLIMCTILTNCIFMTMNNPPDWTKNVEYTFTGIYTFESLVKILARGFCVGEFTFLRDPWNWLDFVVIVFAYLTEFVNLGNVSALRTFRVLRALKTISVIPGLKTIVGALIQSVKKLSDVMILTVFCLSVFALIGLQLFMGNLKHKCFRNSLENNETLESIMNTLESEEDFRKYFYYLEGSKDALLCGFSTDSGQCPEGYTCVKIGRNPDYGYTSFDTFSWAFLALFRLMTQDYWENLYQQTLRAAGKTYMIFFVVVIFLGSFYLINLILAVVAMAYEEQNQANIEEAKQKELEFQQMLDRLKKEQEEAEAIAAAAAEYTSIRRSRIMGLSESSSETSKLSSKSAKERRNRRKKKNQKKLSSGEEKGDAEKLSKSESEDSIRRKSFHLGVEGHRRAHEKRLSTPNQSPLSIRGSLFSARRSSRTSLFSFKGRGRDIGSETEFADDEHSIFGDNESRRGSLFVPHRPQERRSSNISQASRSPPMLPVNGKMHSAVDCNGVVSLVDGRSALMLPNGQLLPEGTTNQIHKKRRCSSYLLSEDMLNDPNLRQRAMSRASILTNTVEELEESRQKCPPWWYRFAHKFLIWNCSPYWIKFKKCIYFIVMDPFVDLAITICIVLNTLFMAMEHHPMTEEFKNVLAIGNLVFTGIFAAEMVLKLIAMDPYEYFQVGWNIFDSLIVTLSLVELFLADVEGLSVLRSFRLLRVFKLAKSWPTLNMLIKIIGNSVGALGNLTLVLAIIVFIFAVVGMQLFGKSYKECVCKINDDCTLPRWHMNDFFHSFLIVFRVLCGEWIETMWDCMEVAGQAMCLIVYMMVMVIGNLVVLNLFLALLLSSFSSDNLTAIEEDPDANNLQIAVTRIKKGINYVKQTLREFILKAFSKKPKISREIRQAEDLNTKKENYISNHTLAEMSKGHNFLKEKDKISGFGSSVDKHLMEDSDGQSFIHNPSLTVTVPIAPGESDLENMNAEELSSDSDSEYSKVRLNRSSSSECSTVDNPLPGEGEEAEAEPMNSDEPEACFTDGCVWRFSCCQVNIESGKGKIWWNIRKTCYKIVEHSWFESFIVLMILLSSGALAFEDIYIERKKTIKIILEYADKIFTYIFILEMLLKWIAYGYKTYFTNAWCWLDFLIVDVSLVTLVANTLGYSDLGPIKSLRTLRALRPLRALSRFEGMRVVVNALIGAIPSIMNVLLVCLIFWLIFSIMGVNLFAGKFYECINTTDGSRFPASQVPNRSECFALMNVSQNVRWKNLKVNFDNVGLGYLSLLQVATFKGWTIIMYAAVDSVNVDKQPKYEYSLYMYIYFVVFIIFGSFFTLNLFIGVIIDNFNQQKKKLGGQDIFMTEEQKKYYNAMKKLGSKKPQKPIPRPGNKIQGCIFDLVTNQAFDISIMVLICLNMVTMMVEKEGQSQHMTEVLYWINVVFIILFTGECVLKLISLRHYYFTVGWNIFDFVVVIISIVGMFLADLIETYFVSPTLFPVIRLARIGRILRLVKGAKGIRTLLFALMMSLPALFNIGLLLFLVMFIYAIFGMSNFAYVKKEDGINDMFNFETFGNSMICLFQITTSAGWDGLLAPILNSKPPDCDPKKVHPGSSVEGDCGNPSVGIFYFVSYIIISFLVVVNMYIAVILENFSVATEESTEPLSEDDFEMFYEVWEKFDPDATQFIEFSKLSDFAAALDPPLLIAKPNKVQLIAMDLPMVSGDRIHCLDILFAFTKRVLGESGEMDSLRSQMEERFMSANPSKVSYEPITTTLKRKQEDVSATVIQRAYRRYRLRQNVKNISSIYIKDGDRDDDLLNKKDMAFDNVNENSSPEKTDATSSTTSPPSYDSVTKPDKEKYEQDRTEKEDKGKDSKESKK
T1 sequence (Q07699 19-218 partner): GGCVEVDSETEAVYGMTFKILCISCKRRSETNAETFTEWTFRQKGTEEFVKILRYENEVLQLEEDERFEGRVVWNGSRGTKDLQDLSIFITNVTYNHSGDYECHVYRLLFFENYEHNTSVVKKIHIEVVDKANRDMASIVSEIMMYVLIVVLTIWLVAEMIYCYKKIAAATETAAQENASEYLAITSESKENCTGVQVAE
T1 sequence (O60939 30-215 partner): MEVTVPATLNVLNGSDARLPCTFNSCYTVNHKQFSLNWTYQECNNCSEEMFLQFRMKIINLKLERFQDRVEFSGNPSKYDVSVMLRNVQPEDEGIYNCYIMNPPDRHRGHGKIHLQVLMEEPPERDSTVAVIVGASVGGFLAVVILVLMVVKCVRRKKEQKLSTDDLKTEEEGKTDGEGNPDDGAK

**Q.** For “AAAIASGLIRQKRQAREQHW [FHF4A peptide, synthetic 20-residue peptide from FHF4A A2 – W21]”, which “effect on long-term inactivation of rpNav1.7” value ([1]; 1 mM FHF4A peptide, HEK293) is on record?
**A.** evidently enhanced accumulation of long-term inactivation of rpNav1.7

**Q.** What about the “fraction of the current elicited at the 6th pulse” value ([1]; rpNav1.7, HEK293, 1 mM, six 16-ms pulses of −10 mV from −100 mV, 40-ms interpulse, scramble n = 6, FHF4A peptide n = 5, p < 0.0001) of the same sequence?
**A.** 0.21 ± 0.03

**Q.** What about the “Nav1.8 INaR reconstitution by FHF4A A2 – W21 peptide” value (Nav1.8 [2]) of the same sequence?
**A.** could reconstitute the Nav1.8 INaR mediated by full-length FHF4A

**Q.** What about the “effect on steady-state activation or inactivation” value (human Nav1.8 [3]; Nav1.8 + FHF2B, ND7/23, FHF4A peptide) of the same sequence?
**A.** did not alter steady-state activation or inactivation

**Q.** What about the “V1/2 (activation), Nav1.8, Figure 6” value (human Nav1.8 [3]; [10]) of the same sequence?
**A.** −12.5 ± 1.7 mV

**Q.** And the “V1/2 (inactivation), Nav1.8, Figure 6” value (human Nav1.8 [3]; [10])?
**A.** −42.4 ± 4.3 mV

**Q.** And the “INaP, Nav1.8” value (human Nav1.8 [3]; end of 50-ms pulse of +10 mV, normalized to peak transient current, 1 mM FHF4A peptide, n = 9)?
**A.** 3.0 ± 1.8 (9) %

**Q.** And the “V1/2 of steady-state inactivation, Y1717K vs Nav1.8” value (Nav1.8 Y1717K; 1 mM FHF4A peptide)?
**A.** None of four lysine-mutations significantly changed the V1/2 value of steady-state inactivation

**Q.** And the “Inactivation (V1/2), Y1717K” value (Nav1.8 Y1717K; 1 mM FHF4A peptide, + FHF2B, ND7/23, n = 10)?
**A.** −38.4 ± 1.0 (10) mV

**Q.** What about the “Activation (V1/2), Y1717K” value (Nav1.8 Y1717K; 1 mM FHF4A peptide, + FHF2B, ND7/23, n = 10, ***p < 0.0001) of the same sequence?
**A.** 7.3 ± 1.5*** (10) mV

**Q.** What about the “INaP, Y1717K” value (Nav1.8 Y1717K; end of 50-ms pulse of +10 mV, normalized to peak transient current, 1 mM FHF4A peptide, n = 10) of the same sequence?
**A.** 5.4 ± 3.8 (10) %

**Q.** What about the “positive shift of voltage dependence of activation by Y1717K” value (Nav1.8 Y1717K; vs Nav1.8, 1 mM FHF4A peptide) of the same sequence?
**A.** 18.4 mV

**Q.** What about the “effect on fast inactivation after Nav1.8 opens” value (Nav1.8 [4]) of the same sequence?
**A.** accelerates fast inactivation after Nav1.8 opens

**Q.** What about the “inhibition of Navβ4 peptide-mediated rpNav1.7 INaR” value [5] of the same sequence?
**A.** inhibited completely

**Q.** What about the “INaR, N891S” value (Nav1.8 N891S [6]) of the same sequence?
**A.** no INaR was induced

**Q.** What about the “average FHF4A peptide mediated INaR amplitude (peak, −15 mV), Nav1.8” value (human Nav1.8 [7]; Nav1.8 + FHF2B, ND7/23, 500 nM TTX, 1 mM peptide intracellular, measured after 20 ms into repolarization, mean ± S.E., n = 9) of the same sequence?
**A.** 4.8% ± 0.5%

**Q.** What about the “potential at which INaR peaked” value (human Nav1.8 [7]; [11]) of the same sequence?
**A.** −15 mV

**Q.** What about the “range of voltages at which INaR observed” value (human Nav1.8 [7]; [11]) of the same sequence?
**A.** −40 to +20 mV

**Q.** And the “saturation of effect on INaR” value (human Nav1.8 [7]; concentration-dependent curve, 1 mM)?
**A.** did not saturate at 1 mM

**Q.** What about the “V1/2 of steady-state inactivation, Y387K vs Nav1.8” value (Nav1.8 Y387K) of the same sequence?
**A.** None of four lysine-mutations significantly changed the V1/2 value of steady-state inactivation

**Q.** And the “Activation (V1/2), Y387K” value (Nav1.8 Y387K; + FHF2B, ND7/23, n = 10)?
**A.** −9.9 ± 2.1 (10) mV

**Q.** What about the “Inactivation (V1/2), Y387K” value (Nav1.8 Y387K; + FHF2B, ND7/23, n = 10) of the same sequence?
**A.** −30.7 ± 1.5 (10) mV

**Q.** And the “INaP, Y387K” value (Nav1.8 Y387K; end of 50-ms pulse of +10 mV, normalized to peak transient current, n = 8)?
**A.** 3.6 ± 0.9 (8) %

**Q.** What about the “FHF4A peptide mediated Nav1.8 INaR without FHF2B (control)” value (Nav1.8 [8]) of the same sequence?
**A.** 2.5% ± 0.4%

**Q.** And the “steady-state activation or inactivation, N891S vs Nav1.8” value (Nav1.8 N891S [9])?
**A.** no effect on steady-state activation or inactivation

**Q.** What about the “Activation (V1/2), N891S” value (Nav1.8 N891S [9]; + FHF2B, ND7/23, n = 6) of the same sequence?
**A.** −8.6 ± 2.1 (6) mV

**Q.** And the “Inactivation (V1/2), N891S” value (Nav1.8 N891S [9]; + FHF2B, ND7/23, n = 6)?
**A.** −36.4 ± 0.7 (6) mV

**Q.** What about the “INaP, N891S” value (Nav1.8 N891S [9]; end of 50-ms pulse of +10 mV, normalized to peak transient current, n = 6, ***p < 0.0001) of the same sequence?
**A.** 1.1 ± 0.5^*** (6) %
